According to ChEMBL document CHEMBL1136378, “Novel 6,7-diphenyl-2,3,8,8a-tetrahydro-1H-indolizin-5-one analogues as cytotoxic agents” (Bioorg Med Chem Lett, 2003):

Experiments:
[1] = Average growth inhibition against cell lines was calculated; assay type: functional
NCI/ADR-RES [2] = test: In vitro cytotoxic activity tested against human breast cancer MCF/ADR cell line
A498 [3] = test: In vitro cytotoxic activity was tested against human renal cancer (A498) cell line; assay type: functional
NCI-H522 [4] = test: In vitro cytotoxic activity tested against human lung cancer (H-522) cell line
M14 [5] = test: In vitro cytotoxic activity was tested against human melanoma cancer (M14) cell line; assay type: functional
DU-145 [6] = test: In vitro cytotoxic activity tested against human prostate cancer (DU145) cell line; assay type: functional
SK-OV-3 [7] = test: In vitro cytotoxic activity tested against human ovarian cancer (SK-OV3) cell line; assay type: functional
U-251 = test: In vitro cytotoxic activity tested against human CNS (U251) cell line; assay type: functional
SW-620 [8] = test: In vitro cytotoxic activity tested against human colon cancer (SW620) cell line; assay type: functional
[9] = Cmax value was determined at a dose of 200 mg/kg (i.p.) in Mice; assay type: ADME, organism-based; design: dose 200 mg/kg, route intraperitoneal; settings: mouse, in vivo, ip
SK-OV-3 [10] = test: In vitro cytotoxic activity against human ovarian cancer (SK-OV3) cell line; assay type: functional
NCI-H522 [11] = test: In vitro cytotoxic activity against human lung cancer (H-522) cell line
A498 [12] = test: In vitro cytotoxic activity against human renal cancer (A498) cell line; assay type: functional
SW-620 [13] = test: In vitro cytotoxic activity against human colon cancer (SW620) cell line; assay type: functional
[14] = Tmax value was determined at a dose of 200 mg/kg (i.p.) in Mice; assay type: ADME, organism-based; design: dose 200 mg/kg, route intraperitoneal; settings: mouse, in vivo, ip
[15] = Area under curve was determined at a dose of 200 mg/kg (i.p.) in Mice; assay type: ADME, organism-based; design: dose 200 mg/kg, route intraperitoneal; settings: mouse, in vivo, ip
[16] = Half life beta(2,4,6,8h) value was determined at a dose of 200 mg/kg (i.p.) in Mice; assay type: ADME, organism-based; design: dose 200 mg/kg, route intraperitoneal; settings: mouse, in vivo, ip, read-out: T1/2 beta (converted)
M14 [17] = test: In vitro cytotoxic activity against human melanoma cancer (M14) cell line; assay type: functional
NCI/ADR-RES [18] = test: In vitro cytotoxic activity against human breast cancer MCF/ADR cell line; assay type: functional
DU-145 [19] = test: In vitro cytotoxic activity against human prostate cancer (DU145) cell line; assay type: functional
[20] = Cmax value was determined at a dose of 100 mg/kg (i.p.) in Mice; assay type: ADME, organism-based; design: dose 100 mg/kg, route intraperitoneal; settings: mouse, in vivo, ip
[21] = Area under curve was determined at a dose of 100 mg/kg (i.p.) in Mice; assay type: ADME, organism-based; design: dose 100 mg/kg, route intraperitoneal; settings: mouse, in vivo, ip
[22] = Tmax value was determined at a dose of 100 mg/kg (i.p.) in Mice; assay type: ADME, organism-based; design: dose 100 mg/kg, route intraperitoneal; settings: mouse, in vivo, ip

Structure (SMILES)	GI50 [1] [µM]	GI50 (NCI/ADR-RES [2]) [µM]	GI50 (A498 [3]) [µM]	GI50 (NCI-H522 [4]) [µM]	GI50 (M14 [5]) [µM]	GI50 (DU-145 [6]) [µM]	GI50 (SK-OV-3 [7]) [µM]	GI50 (U-251) [µM]	GI50 (SW-620 [8]) [µM]	also measured
COc1ccc(C2=C(c3ccc(OC)c(OC)c3)CN3CCCC3C2)cc1OC (stereo unspecified)	> 100	> 100	> 100	> 100	> 100	> 100	> 100	> 100	> 100	–
COc1ccc(C2=C(c3ccc(OC)c(OC)c3)C(=O)N3CCCC3C2)cc1OC (stereo unspecified)	> 100	> 100	> 100	> 100	> 100	> 100	> 100	> 100	> 100	–
CSc1ccc(C2=C(c3ccc(Br)cc3)C(=O)N3CCCC3C2)cc1 (stereo unspecified)	7.8	8	7	7	9	9	9	7	7	–
COc1ccc(C2=C(c3ccc(SC)cc3)CC3CCCN3C2=O)cc1Br (stereo unspecified)	2.5	6	0.6	0.7	3	0.9	3	0.8	5	–
CSc1ccc(C2=C(c3ccc(C(F)(F)F)cc3)C(=O)N3CCCC3C2)cc1 (stereo unspecified)	6.3	–	–	–	–	–	–	0.8	–	Cmax [9]: 3.79 µM; GI50 (SK-OV-3 [10]): 15 µM; GI50 (NCI-H522 [11]): 0.8 µM; GI50 (A498 [12]): 20 µM; GI50 (SW-620 [13]): 0.8 µM; Tmax [14]: 15 min; AUC [15]: 10.7 µM·h; half-life [16]: 160 min; GI50 (M14 [17]): 12 µM; GI50 (NCI/ADR-RES [18]): 0.8 µM; GI50 (DU-145 [19]): 0.7 µM
COc1ccc(C2=C(c3ccc(SC)cc3)CC3CCCN3C2=O)cc1OC (stereo unspecified)	3.6	0.6	8	2	5	1.5	9	0.3	3	Cmax [9]: 23 µM; Tmax [14]: 15 min; AUC [15]: 102 µM·h; half-life [16]: 437 min
COc1ccc(C2=C(c3ccc(SC)cc3)CC3CCCN3C2=O)cc1O (stereo unspecified)	23.6	5	–	6	–	6	> 100	5	20	–
COc1ccc(C2=C(c3ccc(SC)cc3)CC3CCCN3C2=O)cc1OC(=O)CNC(=O)OC(C)(C)C (stereo unspecified)	11.5	6	–	7	–	10	20	6	20	–
CSc1ccc(C2=C(c3ccc(F)c(F)c3)C(=O)N3CCCC3C2)cc1 (stereo unspecified)	2.1	0.8	0.1	0.2	0.3	0.5	0.1	15	0.2	Cmax [20]: 3.61 µM; AUC [21]: 6.92 µM·h; Tmax [22]: 17.4 min
CSc1ccc(C2=C(c3ccc(O)c(O)c3)C(=O)N3CCCC3C2)cc1 (stereo unspecified)	60	80	–	60	–	60	80	30	50	–
COc1ccc(C2=C(c3cc(OC)c(OC)c(OC)c3)CC3CCCN3C2=O)cc1O (stereo unspecified)	> 100	> 100	> 100	> 100	> 100	> 100	> 100	> 100	> 100	–
COc1ccc(/C=C\c2cc(OC)c(OC)c(OC)c2)cc1O [COMBRETASTATIN A4]	0.103	0.09	0.61	0.007	0.0001	–	< 0.0001	0.006	0.005	–
COc1ccc(C2=C(c3ccc(SC)cc3)CC3CCCN3C2)cc1O (stereo unspecified)	> 100	> 100	> 100	> 100	> 100	> 100	> 100	> 100	> 100	–
